Test results taken from the NIST ThermoML archive (doi:10.1021/acs.jced.6b00985).
± gives the expanded uncertainty stated by the source.

Assays:
[1] = refractive index (Na D-line) (dimensionless); conditions: 293.15 K; 101.33 kPa; Liquid; Standard Abbe refractometry
[2] = 293.15 K; 101.33 kPa; Liquid; Vibrating tube method

refractive index [1]	mass density [2] [kg/m3]	SMILES
1.4151 ± 0.0011	819.9 ± 8	CCCCCCC(C)=O [2-octanone]
1.4066 ± 0.0011	745.7 ± 8	C1CCCC1 [cyclopentane]
1.4531 ± 0.0011	948.7 ± 8	OC1CCCC1 [cyclopentanol]
1.4452 ± 0.0012	990.1 ± 8.2	CCCCOC(=O)/C=C\C(=O)OCCCC [dibutyl cis-butendioate]
1.3809 ± 0.0011	988 ± 8	CCC(=O)O [propanoic acid]
